In patent US20050256301A1 (The University of Queensland, priority 1998, published 2005):
Where two headings read alike, the source gives them in different places.

Assays:
[1] = target: endoproteinase Glu-C (Endo Glu-C) (Staphylococcus aureus, UniProt P0C1U8); conditions: pH 8
[2] = human, plasma
[3] = target: human noradrenaline transporter (NET) (human) (UniProt P23975); experiment: displacement of [3H]nisoxetine from COS-7 hNET membranes
P/Q type Ca channels = P/Q type Ca channels (Rattus norvegicus, UniProt P54282); assay type: binding
[4] = test system: bovine adrenal chromaffin cells; assay type: cell-based
[5] = target: human noradrenaline transporter (NET) (human) (UniProt P23975); experiment: displacement of [3H]nisoxetine from COS-7 hNET membranes; remark: listed apart in the source
[6] = target: N-type voltage-sensitive calcium channel (rat brain membrane) (rat) (UniProt Q02294)
[7] = target: T1, N-type voltage-sensitive calcium channels (Rattus norvegicus, UniProt Q02294); assay type: binding
T1 construct: Rats were sacrificed by cervical dislocation and their brains removed and immediately frozen in liquid nitrogen; from tissue; host or cells: rat brain membrane
T1 sequence (Q02294 whole entry, looked up): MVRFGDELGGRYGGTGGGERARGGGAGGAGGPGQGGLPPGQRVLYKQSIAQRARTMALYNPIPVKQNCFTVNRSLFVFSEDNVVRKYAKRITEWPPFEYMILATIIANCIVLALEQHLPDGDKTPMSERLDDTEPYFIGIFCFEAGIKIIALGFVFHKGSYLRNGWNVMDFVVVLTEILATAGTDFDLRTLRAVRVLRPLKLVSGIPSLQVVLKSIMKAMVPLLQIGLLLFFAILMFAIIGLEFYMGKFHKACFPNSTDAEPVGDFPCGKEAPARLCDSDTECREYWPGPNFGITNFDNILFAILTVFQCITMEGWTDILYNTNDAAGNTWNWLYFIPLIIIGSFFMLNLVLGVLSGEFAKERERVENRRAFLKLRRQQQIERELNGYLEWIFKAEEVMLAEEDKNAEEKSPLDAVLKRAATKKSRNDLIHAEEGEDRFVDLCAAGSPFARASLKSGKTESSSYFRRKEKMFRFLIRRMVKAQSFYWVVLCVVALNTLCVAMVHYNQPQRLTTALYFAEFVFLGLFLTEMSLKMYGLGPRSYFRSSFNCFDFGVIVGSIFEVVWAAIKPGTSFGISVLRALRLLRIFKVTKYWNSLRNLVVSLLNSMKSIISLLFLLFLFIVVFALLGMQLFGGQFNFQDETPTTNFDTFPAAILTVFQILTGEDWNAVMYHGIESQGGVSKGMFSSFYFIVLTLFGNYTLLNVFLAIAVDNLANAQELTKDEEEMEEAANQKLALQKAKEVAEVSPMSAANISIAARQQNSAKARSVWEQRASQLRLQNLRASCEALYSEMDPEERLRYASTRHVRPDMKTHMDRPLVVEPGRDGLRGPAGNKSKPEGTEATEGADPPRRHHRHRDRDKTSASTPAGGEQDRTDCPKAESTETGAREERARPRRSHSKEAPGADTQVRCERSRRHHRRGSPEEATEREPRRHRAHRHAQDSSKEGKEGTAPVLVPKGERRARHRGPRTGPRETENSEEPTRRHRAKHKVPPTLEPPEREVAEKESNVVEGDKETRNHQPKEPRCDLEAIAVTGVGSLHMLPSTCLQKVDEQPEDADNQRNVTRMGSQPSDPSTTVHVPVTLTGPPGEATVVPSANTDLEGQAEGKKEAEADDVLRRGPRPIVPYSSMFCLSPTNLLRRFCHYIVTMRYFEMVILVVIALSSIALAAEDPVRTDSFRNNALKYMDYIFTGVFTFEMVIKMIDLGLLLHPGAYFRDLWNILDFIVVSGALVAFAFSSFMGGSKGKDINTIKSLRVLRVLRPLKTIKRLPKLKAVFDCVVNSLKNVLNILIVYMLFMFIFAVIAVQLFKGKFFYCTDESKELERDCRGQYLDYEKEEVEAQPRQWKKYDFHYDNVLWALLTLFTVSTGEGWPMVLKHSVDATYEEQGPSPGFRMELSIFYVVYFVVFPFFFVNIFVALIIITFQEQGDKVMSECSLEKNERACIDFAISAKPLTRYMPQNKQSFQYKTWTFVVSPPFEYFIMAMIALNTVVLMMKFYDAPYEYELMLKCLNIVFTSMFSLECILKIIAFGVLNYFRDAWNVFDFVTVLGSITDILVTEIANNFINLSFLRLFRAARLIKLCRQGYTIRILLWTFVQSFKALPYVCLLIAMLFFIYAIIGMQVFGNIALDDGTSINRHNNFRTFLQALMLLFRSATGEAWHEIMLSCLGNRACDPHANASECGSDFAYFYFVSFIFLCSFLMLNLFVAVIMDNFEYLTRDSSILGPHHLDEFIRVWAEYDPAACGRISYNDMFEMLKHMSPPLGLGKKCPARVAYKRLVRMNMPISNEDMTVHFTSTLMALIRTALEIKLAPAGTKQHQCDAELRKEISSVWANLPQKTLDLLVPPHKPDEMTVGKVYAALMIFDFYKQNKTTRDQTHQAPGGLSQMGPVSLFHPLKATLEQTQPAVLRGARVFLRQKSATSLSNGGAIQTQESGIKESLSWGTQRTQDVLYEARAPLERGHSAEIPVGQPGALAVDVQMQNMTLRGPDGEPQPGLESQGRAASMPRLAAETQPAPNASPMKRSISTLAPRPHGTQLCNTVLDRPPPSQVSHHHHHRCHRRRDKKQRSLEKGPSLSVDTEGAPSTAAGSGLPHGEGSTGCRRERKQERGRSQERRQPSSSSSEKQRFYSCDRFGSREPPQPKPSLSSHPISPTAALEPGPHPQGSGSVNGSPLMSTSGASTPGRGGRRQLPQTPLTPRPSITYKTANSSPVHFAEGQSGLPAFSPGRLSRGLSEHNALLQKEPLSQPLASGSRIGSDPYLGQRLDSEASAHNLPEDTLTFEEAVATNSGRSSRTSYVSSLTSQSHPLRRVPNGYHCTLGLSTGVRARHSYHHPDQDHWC

human noradrenaline transporter (NET) (human), sequence (P23975 whole entry): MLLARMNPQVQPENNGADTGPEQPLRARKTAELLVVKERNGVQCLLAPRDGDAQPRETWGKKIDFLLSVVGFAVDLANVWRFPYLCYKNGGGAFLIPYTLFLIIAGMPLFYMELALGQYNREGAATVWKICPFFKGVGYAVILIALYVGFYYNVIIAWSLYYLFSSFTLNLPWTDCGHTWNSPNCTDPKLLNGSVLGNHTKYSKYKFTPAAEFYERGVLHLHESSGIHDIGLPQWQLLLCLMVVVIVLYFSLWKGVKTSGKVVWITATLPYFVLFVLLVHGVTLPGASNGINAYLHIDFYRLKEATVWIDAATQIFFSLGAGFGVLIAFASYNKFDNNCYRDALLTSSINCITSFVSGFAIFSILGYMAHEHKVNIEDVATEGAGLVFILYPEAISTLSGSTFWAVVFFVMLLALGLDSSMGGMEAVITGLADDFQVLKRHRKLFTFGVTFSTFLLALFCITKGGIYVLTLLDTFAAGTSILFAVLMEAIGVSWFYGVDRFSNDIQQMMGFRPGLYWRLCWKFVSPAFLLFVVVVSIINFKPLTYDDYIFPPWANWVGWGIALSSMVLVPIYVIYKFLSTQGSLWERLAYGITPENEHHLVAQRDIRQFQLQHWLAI
P/Q type Ca channels, sequence (P54282 whole entry, looked up): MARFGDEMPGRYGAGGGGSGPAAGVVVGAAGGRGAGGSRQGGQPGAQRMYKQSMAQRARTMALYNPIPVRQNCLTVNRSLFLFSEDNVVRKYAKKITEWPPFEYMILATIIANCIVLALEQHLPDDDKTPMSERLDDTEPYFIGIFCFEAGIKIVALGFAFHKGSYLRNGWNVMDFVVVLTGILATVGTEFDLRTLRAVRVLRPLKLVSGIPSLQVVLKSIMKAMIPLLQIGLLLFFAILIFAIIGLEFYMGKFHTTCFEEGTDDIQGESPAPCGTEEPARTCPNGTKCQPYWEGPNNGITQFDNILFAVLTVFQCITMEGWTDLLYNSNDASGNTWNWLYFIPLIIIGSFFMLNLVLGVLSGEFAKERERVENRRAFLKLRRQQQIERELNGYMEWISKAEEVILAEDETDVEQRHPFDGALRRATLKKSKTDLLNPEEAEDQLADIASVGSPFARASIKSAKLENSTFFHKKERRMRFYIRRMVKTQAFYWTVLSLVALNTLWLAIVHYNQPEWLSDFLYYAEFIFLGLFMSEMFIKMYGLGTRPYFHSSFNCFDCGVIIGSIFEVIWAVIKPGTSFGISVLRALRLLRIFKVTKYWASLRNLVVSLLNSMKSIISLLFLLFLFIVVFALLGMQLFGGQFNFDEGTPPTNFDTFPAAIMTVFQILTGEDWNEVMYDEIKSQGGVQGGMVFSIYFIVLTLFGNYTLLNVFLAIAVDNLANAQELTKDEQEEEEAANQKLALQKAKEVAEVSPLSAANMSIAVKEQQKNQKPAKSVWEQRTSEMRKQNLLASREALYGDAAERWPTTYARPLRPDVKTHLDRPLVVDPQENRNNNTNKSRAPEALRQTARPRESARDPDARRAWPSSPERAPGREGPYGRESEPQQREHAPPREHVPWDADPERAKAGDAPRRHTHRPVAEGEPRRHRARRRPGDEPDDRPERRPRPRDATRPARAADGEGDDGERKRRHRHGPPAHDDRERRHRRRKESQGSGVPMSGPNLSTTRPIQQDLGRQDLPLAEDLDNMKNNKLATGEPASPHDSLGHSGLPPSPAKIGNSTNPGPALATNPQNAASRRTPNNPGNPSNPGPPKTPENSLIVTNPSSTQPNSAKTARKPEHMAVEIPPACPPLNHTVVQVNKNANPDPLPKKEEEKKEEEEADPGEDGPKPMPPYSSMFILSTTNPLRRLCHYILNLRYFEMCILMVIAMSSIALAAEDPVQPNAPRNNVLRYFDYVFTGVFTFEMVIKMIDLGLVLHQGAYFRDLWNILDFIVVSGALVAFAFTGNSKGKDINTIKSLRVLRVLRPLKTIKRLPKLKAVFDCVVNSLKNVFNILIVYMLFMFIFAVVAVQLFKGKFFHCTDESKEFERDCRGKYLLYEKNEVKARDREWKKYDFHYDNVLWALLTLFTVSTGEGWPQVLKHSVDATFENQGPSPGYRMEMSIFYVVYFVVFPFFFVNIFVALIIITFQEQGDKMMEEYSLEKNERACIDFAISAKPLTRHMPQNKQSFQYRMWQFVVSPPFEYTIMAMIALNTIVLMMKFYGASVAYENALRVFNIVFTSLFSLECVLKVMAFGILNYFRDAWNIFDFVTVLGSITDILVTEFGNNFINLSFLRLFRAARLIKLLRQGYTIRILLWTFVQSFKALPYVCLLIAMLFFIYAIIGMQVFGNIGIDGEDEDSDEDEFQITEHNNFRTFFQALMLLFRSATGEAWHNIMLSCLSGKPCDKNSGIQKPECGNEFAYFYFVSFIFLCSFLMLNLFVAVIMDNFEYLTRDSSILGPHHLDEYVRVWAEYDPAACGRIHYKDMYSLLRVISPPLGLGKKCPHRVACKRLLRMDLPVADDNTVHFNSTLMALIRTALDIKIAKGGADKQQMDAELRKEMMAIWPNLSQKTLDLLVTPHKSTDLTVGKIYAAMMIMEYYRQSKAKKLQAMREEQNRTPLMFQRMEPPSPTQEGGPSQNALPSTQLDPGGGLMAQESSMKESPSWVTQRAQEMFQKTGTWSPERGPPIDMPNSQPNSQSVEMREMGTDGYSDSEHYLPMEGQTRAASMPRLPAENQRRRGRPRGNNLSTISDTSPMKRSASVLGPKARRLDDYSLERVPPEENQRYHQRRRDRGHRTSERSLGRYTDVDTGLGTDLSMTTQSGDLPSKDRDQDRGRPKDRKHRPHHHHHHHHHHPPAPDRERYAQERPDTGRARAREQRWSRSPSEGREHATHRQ

Q: Which results are given for `CC(C)C[C@@H]1NC(=O)[C@H](CC(N)=O)NC(=O)[C@H](CO)NC(=O)[C@H](Cc2cnc[nH]2)NC(=O)[C@H](CCC(=O)O)NC(=O)[C@H](CC(C)C)NC(=O)[C@H](Cc2cnc[nH]2)NC(=O)[C@@H]2CSSC[C@H](NC(=O)CN)C(=O)N[C@@H](CSSC[C@@H](C(N)=O)NC1=O)C(=O)N[C@@H](CO)C(=O)N[C@@H](CC(N)=O)C(=O)N1CCC[C@H]1C(=O)N[C@@H](C(C)C)C(=O)N2` [MII, α-conotoxin MII]?
A: half-life [1]: ~10 h; half-life [2]: ~16 h

Q: Which EC50 [3] does the source give for “[Sec5,10]MrIA-NH2 (peptide; other documents disagree on this pair)” here?
A: 1380 nM

Q: And the log EC50 [3]?
A: -5.86

Q: Which results are given for “CKGKGAKCSRLMYDCCTGSCRSGKCTRNG [cyclo-MVIIA 2]”?
A: ability to displace 125I-MVIIC (P/Q type Ca channels): did not show any ability to displace; selectivity N-type over P/Q-type channel (P/Q type Ca channels): selectivity for the N-type channel over the P/Q-type channel

Q: With “Gly Cys Cys Ser Asp Pro Arg Cys Asn Tyr Asp His Pro Glu Ile Cys Gly Gly Ala Ala Gly Gly [cVc1.1-6]” as the compound, how does the “inhibition of nicotine-evoked catecholamine release, activity relative to Vc1.1” value [4] read?
A: identical, within experimental error, to that of acyclic Vc1.1

Q: Which EC50 [3] does the source give for “χ-conotoxin MrIA-NH2 (peptide; other documents disagree on this pair)” here?
A: 1810 nM

Q: And the log EC50 [3]?
A: -5.74

Q: And the EC50 [5]?
A: 1470 nM

Q: Which EC50 [6] does the source give for ω-conotoxin MVIIA (peptide) here?
A: 0.044 nM

Q: Which EC50 [7] does the source give for “CKGKGAKCSRLMYDCCTGSCRSGKCTRNGLPG [cyclo-MVIIA 1]” here?
A: 85 nM

Q: Which EC50 [7] does the source give for “GLPVCKGKGAKCSRIMYDCCTGSCRSGKCTRG [SEQ ID NO. 7]” here?
A: 1.08 nM
